The compounds below were run against T1, full-length beta-Catenin (Uniprot ID P35222) (Homo sapiens, UniProt P35222) (assay: Fluorescence polarization IC50 (beta-catenin / 5FAM-TCF4 10-53 competition)). Details: beta-Catenin FP IC50 (nM), fluorescence polarization.
T1 construct: 10 nM full-length beta-Catenin (Uniprot ID P35222)
T1 sequence (P35222 1-781): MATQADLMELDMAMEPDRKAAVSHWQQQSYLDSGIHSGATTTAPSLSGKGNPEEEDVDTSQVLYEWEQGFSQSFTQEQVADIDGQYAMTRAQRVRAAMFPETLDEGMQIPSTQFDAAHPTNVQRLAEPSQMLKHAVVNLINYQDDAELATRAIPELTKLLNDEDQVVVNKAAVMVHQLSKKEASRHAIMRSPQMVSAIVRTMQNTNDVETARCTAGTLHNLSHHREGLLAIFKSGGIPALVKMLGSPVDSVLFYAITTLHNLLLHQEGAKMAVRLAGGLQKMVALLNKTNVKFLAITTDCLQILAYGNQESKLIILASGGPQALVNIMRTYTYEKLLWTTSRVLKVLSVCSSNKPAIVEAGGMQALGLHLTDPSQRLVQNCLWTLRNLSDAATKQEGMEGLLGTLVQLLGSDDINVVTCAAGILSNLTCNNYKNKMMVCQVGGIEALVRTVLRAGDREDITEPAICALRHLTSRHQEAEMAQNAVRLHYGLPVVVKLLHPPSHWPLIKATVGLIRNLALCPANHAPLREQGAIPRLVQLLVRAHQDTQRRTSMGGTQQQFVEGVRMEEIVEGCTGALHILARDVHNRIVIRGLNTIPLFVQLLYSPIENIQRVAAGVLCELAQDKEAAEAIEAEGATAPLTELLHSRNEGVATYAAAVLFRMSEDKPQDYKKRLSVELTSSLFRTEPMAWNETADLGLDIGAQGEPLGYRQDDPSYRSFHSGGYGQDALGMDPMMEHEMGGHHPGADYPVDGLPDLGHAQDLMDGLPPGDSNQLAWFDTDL
Type: binding
With `CC(=O)N1CC2CC1C(=O)N[C@@H](CC(=O)O)C(=O)N[C@@H](CC(C)(C)C)C(=O)NC1(CCCCCCCCOC(=O)N3CC[C@@](C(=O)N[C@@H](Cc4ccsc4)C(=O)N[C@@H](Cc4csc5ccccc45)C(=O)N[C@@H](CCC(N)=O)C(N)=O)(C3)NC(=O)[C@H](CC(C)C)NC(=O)[C@H](Cc3ccccc3)NC(=O)[C@H](C)NC(=O)[C@H](C)NC(=O)[C@H](CN(CC(=O)O)CC(F)(F)F)NC(=O)[C@H](CC(=O)O)NC1=O)CCCCCCOc1cccc(c1)CC(=O)O2` (stereo partly drawn) [I-2406, Ac-HypPAc3OAllyl-Asp-Npg-B5-Asp-TfeGA-Ala-Ala-Phe-Leu-PyrS2-3Thi-BztA-Gln-NH2] the IC50 was 242 nM.

Same assay, conditions: fluorescence polarization; read-out: beta-Catenin FP IC50
Compound `CC(C)C[C@@H]1NC(=O)[C@H](Cc2ccccc2)NC(=O)[C@H](C)NC(=O)[C@H](C)NC(=O)[C@H](CN(CC(=O)O)CC(F)(F)F)NC(=O)[C@H](CC(=O)O)NC(=O)C2(CCCCCCCCOC(=O)N3CC[C@@](C(=O)N[C@@H](Cc4ccsc4)C(=O)N[C@@H](Cc4csc5ccccc45)C(=O)N[C@@H](CCC(N)=O)C(N)=O)(C3)NC1=O)CCCCCCOc1cccc(c1)C(=O)N1CCC[C@H]1C(=O)N[C@@H](CC(=O)O)C(=O)N[C@@H](CC(C)(C)C)C(=O)N2` (stereo partly drawn) [I-2377, ProBzAm3OAllyl-Asp-Npg-B5-Asp-TfeGA-Ala-Ala-Phe-Leu-PyrS2-3Thi-BztA-Gln-NH2] has an IC50 of 978 nM.
With `CC(=O)N1CCC[C@]12CC=CCCCC1(CCCC=CCCCOC(=O)N3CC[C@@](C(=O)N[C@@H](Cc4ccccc4C(F)(F)F)C(=O)N[C@@H](Cc4csc5ccccc45)C(=O)N[C@@H](CCC(N)=O)C(=O)N[C@@H](CC(C)C)C(=O)NC4(C(N)=O)CC4)(C3)NC(=O)[C@H](CC(C)C)NC(=O)[C@H](Cc3ccccc3)NC(=O)[C@H](C)NC(=O)[C@H](C)NC(=O)[C@H](Cc3cccc(C(=O)O)c3)NC(=O)[C@H](CC(=O)O)NC1=O)NC(=O)[C@H](CC(C)(C)C)NC(=O)[C@H](CC(=O)O)NC2=O` (stereo partly drawn) [I-2389, Ac-PL3-Asp-Npg-B5-Asp-3COOHF-Ala-Ala-Phe-Leu-PyrS2-2F3MeF-BztA-Gln-Leu-Cpg-NH2] the IC50 was 72 nM.
`CC(C)C[C@@H]1NC(=O)[C@H](Cc2ccccc2)NC(=O)[C@H](C)NC(=O)[C@H](C)NC(=O)[C@H](CN(CC(=O)O)CC(F)(F)F)NC(=O)[C@H](CC(=O)O)NC(=O)C2(CCCCCCCCOC(=O)N3CC[C@@](C(=O)N[C@@H](Cc4ccsc4)C(=O)N[C@@H](Cc4csc5ccccc45)C(=O)N[C@@H](CCC(N)=O)C(N)=O)(C3)NC1=O)CCCCCCOc1cccc(c1)CC(=O)N[C@@H](CC(=O)O)C(=O)N[C@@H](CC(C)(C)C)C(=O)N2` (stereo partly drawn) [I-2404, PAc3OAllyl-Asp-Npg-B5-Asp-TfeGA-Ala-Ala-Phe-Leu-PyrS2-3Thi-BztA-Gln-NH2] showed an IC50 of 781 nM.
Work on `CC(C)C[C@@H]1NC(=O)[C@H](Cc2ccccc2)NC(=O)[C@H](C)NC(=O)[C@H](C)NC(=O)[C@H](CN(CC(=O)O)CC(F)(F)F)NC(=O)[C@H](CC(=O)O)NC(=O)C2(CCCCCCCCOC(=O)N3CC[C@@](C(=O)N[C@@H](Cc4ccsc4)C(=O)N[C@@H](Cc4csc5ccccc45)C(=O)N[C@@H](CCC(N)=O)C(N)=O)(C3)NC1=O)CCCCCCOc1cccc(c1)CC(=O)N1CCC[C@H]1C(=O)N[C@@H](CC(=O)O)C(=O)N[C@@H](CC(C)(C)C)C(=O)N2` (stereo partly drawn) [I-2405, ProPAc3OAllyl-Asp-Npg-B5-Asp-TfeGA-Ala-Ala-Phe-Leu-PyrS2-3Thi-BztA-Gln-NH2] yielded an IC50 of 568 nM.
In the case of `CC(=O)N1CCC[C@]12CC=CCCCC1(CCCC=CCCCOC(=O)N3CC[C@@](C(=O)N[C@@H](Cc4ccsc4)C(=O)N[C@@H](Cc4csc5ccccc45)C(=O)N[C@@H](C)C(N)=O)(C3)NC(=O)[C@H](CC(N)=O)NC(=O)[C@H](Cc3ccccc3)NC(=O)[C@H](C)NC(=O)C(C)(C)NC(=O)[C@H]([C@@H](C)O)NC(=O)[C@H](CC(N)=O)NC1=O)NC(=O)[C@H](CC(C)(C)C)NC(=O)[C@H](CC(=O)O)NC2=O` (stereo partly drawn) [I-2411, Ac-PL3-Asp-Npg-B5-Asn-Thr-Aib-Ala-Phe-Asn-PyrS2-3Thi-BztA-Ala-NH2], the IC50 is reported as 140 nM.
`CC(=O)N1CCC[C@]12CC=CCCCC1(CCCC=CCCCOC(=O)N3CC[C@@](C(=O)N[C@@H](Cc4ccsc4)C(=O)N[C@@H](Cc4csc5ccccc45)C(=O)N[C@@H](Cc4ccccc4)C(N)=O)(C3)NC(=O)[C@H](CC(N)=O)NC(=O)[C@H](Cc3ccccc3)NC(=O)[C@H](C)NC(=O)C(C)(C)NC(=O)[C@H]([C@@H](C)O)NC(=O)[C@H](CC(N)=O)NC1=O)NC(=O)[C@H](CC(C)(C)C)NC(=O)[C@H](CC(=O)O)NC2=O` (stereo partly drawn) [I-2412, Ac-PL3-Asp-Npg-B5-Asn-Thr-Aib-Ala-Phe-Asn-PyrS2-3Thi-BztA-Phe-NH2] gave an IC50 of 267 nM.
For `CC(=O)N1CCC[C@]12CC=CCCCC1(CCCC=CCCCOC(=O)N3CC[C@@](C(=O)N[C@@H](Cc4ccccc4)C(=O)N[C@@H](Cc4csc5ccccc45)C(=O)N[C@@H](CCCCN)C(N)=O)(C3)NC(=O)[C@H](CC(C)C)NC(=O)[C@H](Cc3ccccc3)NC(=O)[C@H](C)NC(=O)[C@H](CC(N)=O)NC(=O)[C@H](CCC(N)=O)NC(=O)[C@H](CC(=O)O)NC1=O)NC(=O)[C@H](CC1CCCCC1)NC(=O)[C@H](CC(N)=O)NC2=O` (stereo partly drawn) [I-2420, Ac-PL3-Asn-Cha-B5-Asp-Gln-Asn-Ala-Phe-Leu-PyrS2-Phe-BztA-Lys-NH2], the IC50 was 2120 nM.
With `CC(=O)N1CCC[C@]12CC=CCCCC1(CCCC=CCCCOC(=O)N3CC[C@@](C(=O)N[C@@H](Cc4ccccc4)C(=O)N[C@@H](Cc4csc5ccccc45)C(=O)N[C@@H](CCCCN)C(N)=O)(C3)NC(=O)[C@H](CC(C)C)NC(=O)[C@H](Cc3ccccc3)NC(=O)[C@H](C)NC(=O)[C@H](CO)NC(=O)[C@H](CCC(N)=O)NC(=O)[C@H](CC(=O)O)NC1=O)NC(=O)[C@H](CC1CCCCC1)NC(=O)[C@H](CC(N)=O)NC2=O` (stereo partly drawn) [I-2422, Ac-PL3-Asn-Cha-B5-Asp-Gln-Ser-Ala-Phe-Leu-PyrS2-Phe-BztA-Lys-NH2] the IC50 was 3360 nM.
With `CC(=O)N1CCC[C@]12CC=CCCCC1(CCCC=CCCCOC(=O)N3CC[C@@](C(=O)N[C@@H](Cc4ccccc4)C(=O)N[C@@H](Cc4csc5ccccc45)C(=O)N[C@@H](CCCCN)C(N)=O)(C3)NC(=O)[C@H](CC(C)C)NC(=O)[C@H](Cc3ccccc3)NC(=O)[C@H](C)NC(=O)[C@H](CCCN3CCOCC3)NC(=O)[C@H](CCC(N)=O)NC(=O)[C@H](CC(=O)O)NC1=O)NC(=O)[C@H](CC1CCCCC1)NC(=O)[C@H](CC(N)=O)NC2=O` (stereo partly drawn) [I-2427, Ac-PL3-Asn-Cha-B5-Asp-Gln-MorphNva-Ala-Phe-Leu-PyrS2-Phe-BztA-Lys-NH2] the IC50 was 757 nM.
Work on `CC(=O)N1CCC[C@]12CC=CCCCC1(CCCC=CCCCOC(=O)N3CC[C@@](C(=O)N[C@@H](Cc4ccccc4)C(=O)N[C@@H](Cc4csc5ccccc45)C(=O)N[C@@H](CCCN4CCOCC4)C(N)=O)(C3)NC(=O)[C@H](CC(C)C)NC(=O)[C@H](Cc3ccccc3)NC(=O)[C@H](C)NC(=O)[C@H](CCCCNC(C)C)NC(=O)[C@H](CCC(N)=O)NC(=O)[C@H](CC(=O)O)NC1=O)NC(=O)[C@H](CC1CCCCC1)NC(=O)[C@H](CC(N)=O)NC2=O` (stereo partly drawn) [I-2428, Ac-PL3-Asn-Cha-B5-Asp-Gln-iPrLys-Ala-Phe-Leu-PyrS2-Phe-BztA-MorphNva-NH2] yielded an IC50 of 401 nM.
`CCCc1cn(CCCC[C@H](NC(=O)[C@H](CO)NC(=O)[C@H](Cc2csc3ccccc23)NC(=O)[C@H](Cc2ccccc2C(F)(F)F)NC(=O)[C@]23CCN(C2)C(=O)OCCCC=CCCCC2(CCCC=CC[C@]4(CCCN4C(C)=O)C(=O)N[C@@H](CC(=O)O)C(=O)N[C@@H](CC(C)(C)C)C(=O)N2)C(=O)N[C@@H](CC(=O)O)C(=O)N[C@@H](Cc2cccc(C(=O)O)c2)C(=O)N[C@@H](C)C(=O)N[C@@H](C)C(=O)N[C@@H](Cc2ccccc2)C(=O)N[C@@H](CC(C)C)C(=O)N3)C(N)=O)nn1` (stereo partly drawn) [I-2432, Ac-PL3-Asp-Npg-B5-Asp-3COOHF-Ala-Ala-Phe-Leu-PyrS2-2F3MeF-BztA-Ser-[3C]TriAzLys-NH2] gave an IC50 of 60 nM.
`CC(=O)N1CCC[C@]12CC=CCCCC1(CCCC=CCCCOC(=O)N3CC[C@@](C(=O)N[C@@H](Cc4ccccc4)C(=O)N[C@@H](Cc4csc5ccccc45)C(=O)N[C@@H](CCC(N)=O)C(N)=O)(C3)NC(=O)[C@H]([C@@H](C)O)NC(=O)[C@H](Cc3ccccc3)NC(=O)[C@H](C)NC(=O)[C@H](C)NC(=O)[C@H](Cc3c[nH]cn3)NC(=O)[C@H](CC(=O)O)NC1=O)NC(=O)[C@H](CC(C)(C)C)NC(=O)[C@H](CCO)NC2=O` (stereo partly drawn) [I-2438, Ac-PL3-Hse-Npg-B5-Asp-His-Ala-Ala-Phe-Thr-PyrS2-Phe-BztA-Gln-NH2] showed an IC50 of 1760 nM.
With `CC(=O)N1CCC[C@]12CC=CCCCC1(CCCC=CCCCOC(=O)N3CC[C@@](C(=O)N[C@@H](Cc4ccccc4)C(=O)N[C@@H](Cc4csc5ccccc45)C(=O)N[C@@H](CCC(N)=O)C(N)=O)(C3)NC(=O)[C@H](Cc3c[nH]cn3)NC(=O)[C@H](Cc3ccccc3)NC(=O)[C@H](C)NC(=O)[C@H](C)NC(=O)[C@H](CCC(N)=O)NC(=O)[C@H](CC(=O)O)NC1=O)NC(=O)[C@H](CC(C)(C)C)NC(=O)[C@H](CCO)NC2=O` (stereo partly drawn) [I-2439, Ac-PL3-Hse-Npg-B5-Asp-Gln-Ala-Ala-Phe-His-PyrS2-Phe-BztA-Gln-NH2] the IC50 was 2760 nM.
